The values that follow come from patent US6683078B2, “Use of sulfonyl aryl or heteroaryl hydroxamic acids and derivatives thereof as aggrecanase inhibitors” (priority 2001, dated 2004).

One series deals with T1, Recombinant human MMP-1 (Homo sapiens, UniProt P03956).
T1 construct: made in house; host or cells: transfected HT-1080 cells
T1 sequence (P03956 100-469): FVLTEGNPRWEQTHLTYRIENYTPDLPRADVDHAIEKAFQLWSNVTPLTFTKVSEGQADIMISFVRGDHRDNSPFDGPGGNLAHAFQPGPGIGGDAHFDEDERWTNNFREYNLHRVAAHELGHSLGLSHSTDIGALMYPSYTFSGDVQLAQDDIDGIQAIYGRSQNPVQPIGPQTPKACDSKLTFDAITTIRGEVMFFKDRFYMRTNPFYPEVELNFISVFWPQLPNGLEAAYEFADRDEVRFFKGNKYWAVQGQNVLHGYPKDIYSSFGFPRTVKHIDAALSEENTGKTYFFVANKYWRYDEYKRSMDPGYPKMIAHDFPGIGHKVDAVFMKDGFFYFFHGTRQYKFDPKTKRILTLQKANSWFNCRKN
As to the kind of experiment: In vitro MMP inhibition, fluorogenic peptide substrate. Format: biochemical.

Another series has as its target T2, Recombinant human MMP-13 (Homo sapiens, UniProt P45452).
T2 construct: made in house; host or cells: baculovirus / insect cells
Described as above. Format: biochemical.

A further series addresses T3, Recombinant human MMP-2 (Homo sapiens, UniProt P08253).
T3 construct: made in house
T3 sequence (P08253 110-660): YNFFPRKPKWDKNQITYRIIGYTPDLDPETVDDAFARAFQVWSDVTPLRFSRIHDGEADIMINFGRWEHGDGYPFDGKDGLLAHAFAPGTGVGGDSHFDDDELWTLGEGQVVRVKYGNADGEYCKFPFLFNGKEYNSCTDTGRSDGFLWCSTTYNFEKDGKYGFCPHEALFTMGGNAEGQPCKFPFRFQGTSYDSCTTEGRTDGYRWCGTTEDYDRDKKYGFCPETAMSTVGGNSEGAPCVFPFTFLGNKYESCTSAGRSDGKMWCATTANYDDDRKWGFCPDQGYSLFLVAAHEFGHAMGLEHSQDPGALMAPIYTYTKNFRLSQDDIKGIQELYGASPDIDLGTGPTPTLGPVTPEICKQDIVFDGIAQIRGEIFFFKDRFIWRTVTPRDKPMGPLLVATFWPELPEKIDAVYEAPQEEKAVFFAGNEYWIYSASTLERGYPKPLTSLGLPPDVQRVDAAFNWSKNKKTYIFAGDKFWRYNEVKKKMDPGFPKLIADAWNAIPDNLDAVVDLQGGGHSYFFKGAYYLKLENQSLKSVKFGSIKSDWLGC
The series is described as above. Format: biochemical.

A further series addresses T4, Recombinant human MMP-8 (Homo sapiens, UniProt P22894).
T4 construct: made in house
Described as above. Format: biochemical. To be noted: Table B.

The target in a further series is T5, Recombinant human MMP-9 (Homo sapiens, UniProt P14780).
T5 construct: made in house
Described as above. Format: biochemical. To be noted: Table B.

A further series addresses T6, Recombinant human MMP-14 (Homo sapiens, UniProt P50281).
T6 construct: made in house
The description is as above. Format: biochemical. To be noted: Table B.

For the next series, the target named is T7, Recombinant human MMP-3 (Homo sapiens, UniProt P08254).
T7 construct: made in house
Described as above. Format: biochemical. To be noted: Table B.

Series [1] relates to solid tumor cancers (colorectal, pancreatic, ovarian, and prostate). To be noted: cited from earlier work.

Counter-ions that a name gives are not always drawn.

T4 sequence (P22894 101-467): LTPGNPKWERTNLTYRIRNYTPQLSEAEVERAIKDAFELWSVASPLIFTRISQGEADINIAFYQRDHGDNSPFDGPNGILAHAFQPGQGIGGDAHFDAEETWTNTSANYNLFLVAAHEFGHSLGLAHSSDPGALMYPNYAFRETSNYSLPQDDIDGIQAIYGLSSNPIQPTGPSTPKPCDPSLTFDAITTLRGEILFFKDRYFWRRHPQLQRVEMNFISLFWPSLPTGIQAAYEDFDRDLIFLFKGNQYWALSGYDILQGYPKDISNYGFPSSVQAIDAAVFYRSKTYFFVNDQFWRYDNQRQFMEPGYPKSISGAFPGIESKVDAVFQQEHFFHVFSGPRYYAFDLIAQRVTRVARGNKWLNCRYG
T7 sequence (P08254 100-477): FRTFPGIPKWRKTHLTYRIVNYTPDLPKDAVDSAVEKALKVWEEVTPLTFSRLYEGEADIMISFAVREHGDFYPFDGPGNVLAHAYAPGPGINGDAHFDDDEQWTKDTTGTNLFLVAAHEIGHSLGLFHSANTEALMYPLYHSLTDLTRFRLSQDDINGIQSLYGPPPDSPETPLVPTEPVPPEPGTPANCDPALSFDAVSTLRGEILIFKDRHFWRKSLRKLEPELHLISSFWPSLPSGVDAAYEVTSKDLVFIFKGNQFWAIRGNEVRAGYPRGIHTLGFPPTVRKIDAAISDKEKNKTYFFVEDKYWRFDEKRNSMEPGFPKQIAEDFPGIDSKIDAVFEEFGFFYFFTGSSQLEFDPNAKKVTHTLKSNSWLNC
T5 sequence (P14780 107-707 limits assumed): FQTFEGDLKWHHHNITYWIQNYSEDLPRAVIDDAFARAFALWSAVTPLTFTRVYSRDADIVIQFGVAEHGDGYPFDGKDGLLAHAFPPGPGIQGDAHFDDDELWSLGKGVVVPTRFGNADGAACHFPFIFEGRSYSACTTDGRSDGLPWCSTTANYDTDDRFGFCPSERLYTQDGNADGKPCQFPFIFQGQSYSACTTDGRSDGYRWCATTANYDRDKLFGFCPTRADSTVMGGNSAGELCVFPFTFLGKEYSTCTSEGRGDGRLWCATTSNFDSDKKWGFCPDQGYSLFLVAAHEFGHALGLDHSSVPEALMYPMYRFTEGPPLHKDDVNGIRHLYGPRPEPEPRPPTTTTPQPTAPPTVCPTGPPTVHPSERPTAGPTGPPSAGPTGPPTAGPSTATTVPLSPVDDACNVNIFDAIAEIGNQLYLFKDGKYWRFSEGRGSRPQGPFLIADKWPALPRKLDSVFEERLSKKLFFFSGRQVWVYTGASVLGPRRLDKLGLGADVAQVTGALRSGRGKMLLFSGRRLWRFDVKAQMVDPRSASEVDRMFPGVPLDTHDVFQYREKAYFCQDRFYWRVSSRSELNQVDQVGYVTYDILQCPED
Excerpt for Recombinant human MMP-13: The expressed proenzyme was first purified over a heparin agarose column, and then over a chelating zinc chloride column. The proenzyme was then activated by APMA for use in the assay.
(§1) The enzyme substrate was a methoxycoumarin-containing polypeptide having the following sequence:
MCA-ProLeuGlyLeuDpaAlaArgNH2
(§2) Here, “MCA” is methoxycoumarin and “Dpa” is 3-(2,4-dinitrophenyl)-L-2,3-diaminopropionyl alanine.
(§3) These solutions were then compared to a control (which contained an equal amount of DMSO/buffer solution, but no hydroxamate compound) using Microfluor™ White Plates (Dynatech, Chantilly, Va.). More specifically, the MMPs were activated with APMA or trypsin. Then the various hydroxamate/DMSO/buffer solutions and control solutions were introduced into separate plates at room temperature with the activated MMP. After 10 minutes, 4 um of the MMP substrate was added to each plate. The plates were then incubated for 5 minutes at room temperature. […] Inhibition was measured as a reduction in fluorescent intensity as a function of inhibitor concentration using a Perkin Elmer (Norwalk, Conn.) L550 plate reader. The IC50's were then calculated from these measurements.
Description for Recombinant human MMP-14: (§4) These enzymes were prepared in the Assignee's laboratories following usual laboratory procedures. Specifics for preparing and using these enzymes can be found in the scientific literature describing these enzymes.
as §1
MCA-ProLeuGlyLeuDpaAlaArgNH2
as §2, §3
Excerpt for Recombinant human MMP-2: as §1
MCA-ProLeuGlyLeuDpaAlaArgNH2
as §2, §3
Description for Recombinant human MMP-3: as §4, §1
MCA-ProLeuGlyLeuDpaAlaArgNH2
as §2, §3
Description for Recombinant human MMP-8: as §4, §1
MCA-ProLeuGlyLeuDpaAlaArgNH2
as §2, §3
Description for Recombinant human MMP-9: as §1
MCA-ProLeuGlyLeuDpaAlaArgNH2
as §2
More specifically, the MMPs were activated with APMA or trypsin. […] After 10 minutes, 4 um of the MMP substrate was added to each plate. The plates were then incubated for 5 minutes at room temperature. […] Inhibition was measured as a reduction in fluorescent intensity as a function of inhibitor concentration using a Perkin Elmer (Norwalk, Conn.) L550 plate reader. The IC50's were then calculated from these measurements.

For `O=C(NO)c1ccccc1CS(=O)(=O)c1ccc(Oc2ccccc2)cc1` [Example 1, N-hydroxy-2-[[(4-phenoxyphenyl)-sulfonyl]methyl]benzamide], the IC50 (in general, the midpoint of a concentration-inhibition curve) at Recombinant human MMP-1 (Inhibition Table A) is over 10 µM.
With `O=C(NO)c1ccccc1S(=O)(=O)N1CCC(Cc2ccccc2)CC1` [Example 3, N-hydroxy-2-[[4-(phenylmethyl)-1-piperidinyl]sulfonyl]benzamide], the IC50 was over 10 µM at Recombinant human MMP-1 (Inhibition Table A), 1000 nM at Recombinant human MMP-13 (Inhibition Table A) and 148 nM at Recombinant human MMP-2 (Inhibition Table A).
For `O=C(NO)c1ccccc1S(=O)(=O)Cc1ccc(-c2ccccc2)cc1` [Example 4, 2-[([1,11-biphenyl]-4-ylmethyl)-sulfonyl]-N-hydroxybenzamide] the same measures were over 10 µM, over 10000 nM and over 10000 nM.
For `O=C(NO)c1ccccc1NS(=O)(=O)c1ccc(Oc2ccccc2)cc1` [Example 5, N-hydroxy-2-[[(4-phenoxyphenyl)-sulfonyl]amino]benzamide], the IC50 at Recombinant human MMP-1 (Inhibition Table A) was over 10 µM; on Recombinant human MMP-13 (Inhibition Table A) it was over 10000 nM.
For `COc1ccc(NS(=O)(=O)c2ccccc2C(=O)NO)cc1` [Example 7, N-hydroxy-2-[(4-methoxyanilino)sulfonyl]benzamide] the same measures were over 10 µM and over 10000 nM.
For the molecule `O=C(NO)c1ccccc1S(=O)(=O)NCc1ccccc1` [Example 8, N-hydroxy-2-[(benzylamino)sulfonyl]benzamide], the IC50 on Recombinant human MMP-1 (Inhibition Table A) was over 10 µM; at Recombinant human MMP-13 (Inhibition Table A) it was over 10000 nM.
Regarding `O=C(NO)c1ccccc1S(=O)(=O)N1CCC(c2ccccc2)CC1` [Example 9, N-Hydroxy-2-[[4-(phenyl)-1-piperidnyl]sulfonyl]benzamide], at Recombinant human MMP-1 (Inhibition Table A), the IC50 is over 10 µM.
As to `CC(O)(C(=O)NO)c1ccccc1S(=O)(=O)N1CCC(c2ccccc2)CC1` (centres unmarked) [Example 10, N,2-dihydroxy-2-methyl-2-[(4-phenyl-1-piperidinyl)sulfonyl]benzeneacetamide], the IC50 at Recombinant human MMP-1 (Inhibition Table A) is over 10 µM.
For the molecule `COc1ccc(C(=O)NC2CCN(S(=O)(=O)c3ccccc3C(=O)NO)C2)cc1` (centres unmarked) [Example 11, N-hydroxy-2-[[3-[(4-methoxybenzoyl)amino]-1-pyrrolidinyl]sulfonyl]benzamide], the IC50 on Recombinant human MMP-13 (Inhibition Table A) was found to be 2200 nM; at Recombinant human MMP-2 (Inhibition Table A) it was 2300 nM.
For the molecule `O=C(NO)c1ccccc1S(=O)(=O)N1CCC(Oc2ccc(OC(F)(F)F)cc2)CC1` [Example 12, N-hydroxy-2-[[4-[4-(trifluoromethoxy)phenoxy]-1-piperidinyl]sulfonyl]benzamide], the figures for the IC50 on Recombinant human MMP-1 (Inhibition Table A) and at Recombinant human MMP-13 (Inhibition Table A) were over 10 µM and 33 nM, respectively.
For `O=C(NO)c1ccccc1S(=O)(=O)N1CCC(Oc2ccc(C(F)(F)F)cc2)CC1` [Example 13, N-hydroxy-2-[[4-[4-(trifluoromethyl)phenoxy]-1-piperidinyl]sulfonyl]benzamide], the IC50 at Recombinant human MMP-1 (Inhibition Table A) is over 10 µM.
Consider `O=C(NO)c1ccccc1S(=O)(=O)N1CCC(OCc2ccc(C(F)(F)F)cc2)CC1` [Example 14, N-hydroxy-2-[[4-[[4-(trifluoromethyl)phenyl]methoxy]-1-piperidinyl]sulfonyl]benzamide], for which the results for the IC50 at Recombinant human MMP-1 (Inhibition Table A), at Recombinant human MMP-13 (Inhibition Table A) and at Recombinant human MMP-2 (Inhibition Table A) were over 10 µM, 900 nM and 35 nM, respectively.
As to `O=C(NO)c1ccccc1S(=O)(=O)Nc1ccc(Oc2ccccc2)cc1` [Example 15, N-hydroxy-2-[[(4-phenoxyphenyl)-amino]sulfonyl]benzamide], the IC50 at Recombinant human MMP-1 (Inhibition Table A) was over 10 µM; at Recombinant human MMP-13 (Inhibition Table A) it was 9000 nM; at Recombinant human MMP-2 (Inhibition Table A), 3500 nM.
As to `COc1ccc(S(=O)(=O)N2CCC(Oc3ccc(C(F)(F)F)cc3)CC2)c(C(=O)NO)c1OC` [Example 16, N-hydroxy-2,3-dimethoxy-6-[[4-[4-(trifluoromethyl)phenoxy]-1-piperidinyl)sulfonyl]benzamide], on Recombinant human MMP-1 (Inhibition Table A), the IC50 is over 10 µM.
On to `O=C(NO)c1ccccc1S(=O)(=O)N1CCC(Oc2ccc(C(F)(F)F)cc2)C1` (centres unmarked) [Example 17, N-hydroxy-2-[[3-[4-(trifluoromethyl)phenoxy]-1-pyrrolidinyl]sulfonyl]benzamide], for which the IC50 was determined as 2000 nM at Recombinant human MMP-13 (Inhibition Table A) and 1800 nM at Recombinant human MMP-2 (Inhibition Table A).
Take `O=C(NO)c1c(F)cccc1S(=O)(=O)N1CCC(Oc2ccc(C(F)(F)F)cc2)CC1` [Example 19]: the IC50 on Recombinant human MMP-1 (Inhibition Table A) was over 10 µM.
Regarding `COc1ccccc1-c1ccc(OC2CCN(S(=O)(=O)c3ccc(OC)c(OC)c3C(=O)NO)CC2)cc1` [Example 22], the IC50 on Recombinant human MMP-1 (Table B) was over 10 µM.
In the case of `COCCOc1cccc(S(=O)(=O)N2CCC(Oc3ccc(C(F)(F)F)cc3)CC2)c1C(=O)NO` [Example 23, N-hydroxy-2-(2-methoxyethoxy)-6-[[4-[4-(trifluoromethyl)phenoxy]-1-piperidinyl]sulfonyl]benzamide], the IC50 at Recombinant human MMP-1 (Table B) was over 10 µM.
With `COc1ccc(S(=O)(=O)N2CCC(Sc3ccccc3)CC2)c(C(=O)NO)c1OC` [Example 24], the IC50 at Recombinant human MMP-8 turned out to be 107 nM.
With `CCCCOc1ccc(N2CCN(S(=O)(=O)c3ccc(OC)c(OC)c3C(=O)NO)CC2)cc1F` [Example 25, 6-[[4-(butoxy-3-fluorophenyl)-1-piperazinyl]sulfonyl]-N-hydroxy-2,3-dimethoxybenzamide], the IC50 was 22.1 nM at Recombinant human MMP-9; over 10 µM at Recombinant human MMP-1 (Table B); 8.5 nM on Recombinant human MMP-13 (Table B); 252 nM at Recombinant human MMP-8; over 10000 nM at Recombinant human MMP-14; 294 nM on Recombinant human MMP-3. Moreover, the IC50 at Recombinant human MMP-2 (Table B) was 0.4 nM.
For `COc1ccc(S(=O)(=O)N2CCN(c3ccc(OC(F)(F)F)cc3)CC2)c(C(=O)NO)c1OC` [Example 26], the IC50 was 40.1 nM on Recombinant human MMP-9; over 10 µM at Recombinant human MMP-1 (Table B); 17.9 nM at Recombinant human MMP-13 (Table B); 7.1 nM on Recombinant human MMP-8; 416 nM on Recombinant human MMP-14; 1460 nM at Recombinant human MMP-3. Besides, the IC50 on Recombinant human MMP-2 (Table B) was 0.4 nM.
In the case of `COc1ccc(-c2ccc(OC3CCN(S(=O)(=O)c4ccc(OC)c(OC)c4C(=O)NO)CC3)cc2)cc1OC` [Example 27], the IC50 at Recombinant human MMP-9 was 370 nM; at Recombinant human MMP-1 (Table B) it was over 10 µM; at Recombinant human MMP-13 (Table B) it was 2.6 nM; at Recombinant human MMP-8, 115 nM; on Recombinant human MMP-14, 1700 nM; at Recombinant human MMP-3, 100 nM. For the same molecule, the IC50 at Recombinant human MMP-2 (Table B) amounted to 3.3 nM.
With `O=C(NO)c1ccccc1S(=O)(=O)N1CCC(Oc2ccccn2)CC1` [Example 44, N-hydroxyl-2-[[4-(2-pyridinyloxy)-1-piperidinyl]sulfonyl]benzamide, monohydrochloride], the IC50 at Recombinant human MMP-1 (Table B) was over 10 µM.
`O=C(NO)c1ccccc1S(=O)(=O)N1CCN(C(=O)c2ccccc2)CC1` [Example 53, 2-[(4-benzoyl-1-piperazinyl)sulfonyl]-N-hydroxybenzamide]: the results for the IC50 at Recombinant human MMP-13 (Table B) and on Recombinant human MMP-2 (Table B) were 6700 nM and 1000 nM, respectively.
For the molecule `CNC(=O)[C@@H](NC(=O)[C@H](CC(C)C)[C@H](O)C(=O)NO)C(C)(C)C` [Marimastat], the “most common drug-related toxicity” value in series [1] (clinical trials) is “musculoskeletal pain and stiffness”. Moreover, in series [1] (meta analysis of Phase I/II data, patients with advanced, treatment-refractory solid tumors), the “effect on cancer-specific antigens used as surrogate markers for biological activity” value is recorded as “dose-related reduction in the rise of cancer-specific antigens”.
